From patent publication US5225583A, “Alkyl-aryl 1,3-propanedione silicone derivative and an external preparation for skin with the derivative compounded therein” (Shiseido Co., Ltd., priority 1991, dated 1993)

What was measured:
[1] = Ultraviolet ray absorption spectrum; format: physicochemical; set-up: ε: unit not given beside the values; settings: for ε: at λmax; for λmax: ultraviolet ray absorption
[2] = Test for solubility of alkyl-aryl 1,3-propanedione silicone derivative in silicone-based oils and Squalene at 25° C.; format: physicochemical; settings: for Solubility, Scwr, 30% / Solubility, Scwr, 50%: Scwr (Squalene); for Solubility, Scwr, 30%: 30% (w/w); for Solubility, Scwr, 50%: 50% (w/w); for Solubility, Silicon KF56, 30%: Silicone KF 56, 30% (w/w); for Solubility, Silicon KF56, 50%: Silicone KF 56, 50% (w/w); for Solubility, Sil. KF96, 30%: Silicone KF96, 30% (w/w); for Solubility, Sil. KF96, 50%: Silicone KF96, 50% (w/w)
Experimental: A circle (O) mark is put to a compound which is completely dissolved under 25° C., and a cross (X) mark is put to a compound which makes the solution cloudy even a little.

SMILES | ε [1] | λmax [1] [nm] | Solubility, Scwr, 30% [2] | Solubility, Scwr, 50% [2] | Solubility, Silicon KF56, 30% [2] | Solubility, Silicon KF56, 50% [2] | Solubility, Sil. KF96, 30% [2] | Solubility, Sil. KF96, 50% [2]
COc1cc(C(=O)CC(=O)C(C)(C)C)ccc1OCCCCC[Si](C)(O[Si](C)(C)C)O[Si](C)(C)C [Compound 8] | 23220 | 334 | .largecircle. | .largecircle. | .largecircle. | .largecircle. | .largecircle. | .largecircle.
COc1cc(C(=O)CC(=O)C(C)(C)C)ccc1OCCC[Si](C)(O[Si](C)(C)C)O[Si](C)(C)C [Compound 2] | 23550 | 334 | .largecircle. | .largecircle. | .largecircle. | .largecircle. | .largecircle. | .largecircle.
COc1cc(C(=O)CC(=O)C(C)(C)C)ccc1OCCC[Si](C)(C)O[Si](C)(C)C [Compound 1] | 24090 | 335 | .largecircle. | .largecircle. | .largecircle. | .largecircle. | .largecircle. | .largecircle.
COc1ccc(C(=O)CC(=O)C(C)(C)C)cc1OCCC[Si](C)(O[Si](C)(C)C)O[Si](C)(C)C [Compound 3] | – | – | .largecircle. | .largecircle. | .largecircle. | .largecircle. | .largecircle. | .largecircle.
CCCCC(CC)C(=O)CC(=O)c1cc(CCC[Si](C)(O[Si](C)(C)C)O[Si](C)(C)C)c(OC)c(OC)c1 (centres unmarked) [Compound 5] | 23500 | 334 | .largecircle. | .largecircle. | .largecircle. | .largecircle. | .largecircle. | .largecircle.
COc1cc(C(=O)CC(=O)C(C)(C)C)ccc1OCC(C)C[Si](C)(O[Si](C)(C)C)O[Si](C)(C)C (centres unmarked) [Compound 7] | 27350 | 334 | .largecircle. | .largecircle. | .largecircle. | .largecircle. | .largecircle. | .largecircle.
CCCCC(CC)C(=O)CC(=O)c1cc(CCC[Si](C)(O[Si](C)(C)C)O[Si](C)(C)C)c(OC)c(OC)c1 (centres unmarked) [Compound 6] | – | – | .largecircle. | .largecircle. | .largecircle. | .largecircle. | .largecircle. | .largecircle.
COc1cc(C(=O)CC(=O)C(C)(C)C)cc(CCC[Si](C)(O[Si](C)(C)C)O[Si](C)(C)C)c1O [Compound 9] | 24000 | 342 | .largecircle. | .largecircle. | .largecircle. | .largecircle. | .largecircle. | –
